Test results: patent publication US20150010498A1, “Immunocytokines for Cancer Treatment in Combination with Chemotherapeutic Agents” (Philogen S.p.A., priority 2007, published 2015)

Experiments:
[1] = system: MDA-MB-231 human breast cancer cells; assay: Therapy of MDA-MB231 human breast cancer model implanted in nude mice (tumor growth); type: in vivo, Balb/c nude female mice; settings: 4 mg/kg versus 1 mg/kg doxorubicin i.v.; FIG. 5
Method: Tumor-bearing mice were obtained by injecting 2*10̂7 MDA-MB-231 human breast cancer cells s.c. in 10- to 12-week old Balb/c nude female mice (Charles River Laboratories). Mice were grouped (n=5) 9 days after tumor cell implantation when tumors were clearly palpable and injected i.v. in the lateral tail vein with saline, 20 μg F16-IL2 (corresponding to 6.6 μg IL2), 6.6 μg recombinant IL2 (Proleukin®, and 4 mg/kg or 1 mg/kg Doxorubicin in a maximum volume of 250 μl. Mice were monitored daily and tumor growth was measured three times weekly with a caliper using the following formula: volume=length×width2×0.5. Animals were sacrificed when tumors reached a volume >2000 mm3 or when tumors became necrotic according to Swiss regulations and under a project license granted by the
Veterinäramt des Kantons Zürich (198/2005). Tumor sizes are expressed as mean±SE.
Tumor-bearing mice produced in the same way were injected i.v. in the lateral tail vein with saline, 20 μg F16-IL2 (corresponding to 6.6 μg IL2), and 1 mg/kg or 5 mg/kg taxol™ in a maximum volume of 250 μl. Mice were monitored and tumor growth measured as described above.

tubulin = settings: compared with paclitaxel; cited from earlier work
[2] = system: MDA-MB-231 human breast cancer cells; assay: Biodistribution of radioiodinated F16-IL2 after doxorubicin pre-injection; type: in vivo, Balb/c nude female mice; settings: radioiodinated F16-IL2 i.v., sacrifice 24 h after injection; 10 mg/kg doxorubicin i.v. 8 days, 24 h or 2 h before; FIGS. 1 to 4
Method: The in vivo targeting performance was evaluated by biodistribution analysis. Tumor-bearing mice were obtained by injecting 10̂7 MDA-MB-231 human breast cancer cells s.c. in 10- to 12-week old Balb/c nude female mice (Charles River Laboratories). Mice were grouped (n≧5) when tumors were clearly palpable and injected i.v. in the lateral tail vein with 10 mg/kg doxorubicin 8 days, 24 h or 2 h prior to biodistribution. The control group was exempted from doxorubicin administration. Purified F16-IL2 was radioiodinated and injected into the lateral tail vein of all mice. Mice were sacrificed 24 h after injection (12.5 μg, 3.3 μCi per mouse). Organs were weighed and radioactivity was counted with a Packard Cobra gamma counter. Radioactivity content of representative organs was expressed as the percentage of the injected dose per gram of tissue (%ID/g).

COc1cccc2c1C(=O)c1c(O)c3c(c(O)c1C2=O)C[C@@](O)(C(=O)CO)C[C@@H]3OC1CC(N)C(O)C(C)O1 (stereo partly drawn) [doxorubicin, (8S, 10S)-10-(4-amino-5-hydroxy-6-methyl-tetrahydro-2H-pyran-2-yloxy)-6,8,11-trihydroxy-8-(2-hydroxyacetyl)-1-methoxy-7,8,9,10-tetrahydrotetracene-5,12-dione]
effect of doxorubicin dose on efficacy [1]: higher doses of doxorubicin were even more effective than low doses

A-nor-paclitaxel
tubulin-assembly activity relative to paclitaxel (tubulin): only three times less than that of paclitaxel

F16-IL2: antibody-IL2 conjugate: interleukin 2 conjugated to the anti-tenascin-C antibody 4A1-F16 (VH SEQ ID NO. 2, VL SEQ ID NO. 4)
tumor targeting of the immunocytokine (biodistribution, %ID/g) [2]: does not impair the tumor targeting
